From ChEMBL document CHEMBL4813924, “Isolation and Pharmacological Characterization of Six Opioidergic Picralima nitida Alkaloids” (J Nat Prod, 2021)
Active and inactive are the calls of the source. The rule behind the calls is not given here.

How the values were obtained:
[1] = target: T1, D(1B) dopamine receptor (Homo sapiens, UniProt P21918); experiment: Displacement of [3H]-SCH23390 from dopamine D5 receptor (unknown origin) expressed in HEK-293T cells at 10 uM; type: cell-based
[2] = target: Sodium-dependent serotonin transporter (Homo sapiens) (UniProt P31645); experiment: Displacement of [3H]-citalopram from SERT (unknown origin) expressed in HEK cells at 10 uM relative to control; type: cell-based
[3] = target: Histamine H3 receptor (Homo sapiens) (UniProt Q9Y5N1); experiment: Displacement of [3H]-alpha-methylhistamine from histamine H3 receptor (unknown origin) expressed in Flp-In-293 cells at 10 uM relative to control; type: cell-based
[4] = target: T1, D(1B) dopamine receptor; experiment: Displacement of [3H]-SCH23390 from dopamine D5 receptor (unknown origin) expressed in HEK-293T cells assessed as inhibition constant; type: cell-based
[5] = target: T2, Delta-type opioid receptor (Homo sapiens, UniProt P41143); experiment: Displacement of [3H]-DPDPE from human delta opioid receptor expressed in CHO-K1 cells by radioligand binding assay; type: cell-based
[6] = target: Kappa-type opioid receptor (Mus musculus, UniProt P33534); experiment: Agonist activity at mouse FLAG-tagged kappa opioid receptor expressed in HEK293 cells assessed as inhibition of forskolin-induced cAMP production preincubated for 20 mins followed by forskolin stimulation and measured after 15 mins by Glo-sensor reagent based assay; type: functional, cell-based
[7] = target: Delta-type opioid receptor (Mus musculus, UniProt P32300); experiment: Agonist activity at mouse FLAG-tagged delta opioid receptor expressed in HEK293 cells assessed as inhibition of forskolin-induced cAMP production preincubated for 20 mins followed by forskolin stimulation and measured after 15 mins by Glo-sensor reagent based assay; type: functional, cell-based
[8] = target: T3, Kappa-type opioid receptor (Homo sapiens, UniProt P41145); experiment: Displacement of [3H]-U69593 from kappa opioid receptor (unknown origin) expressed in HEK cells at 10 uM; type: cell-based; conditions: filed as agonist
[9] = target: T2, Delta-type opioid receptor; experiment: Displacement of [3H]-DADLE from delta opioid receptor (unknown origin) expressed in HEK cells at 10 uM; type: cell-based; conditions: filed as agonist
[10] = target: T4, Mu-type opioid receptor (Homo sapiens, UniProt P35372); experiment: Displacement of [3H]-DAMGO from mu opioid receptor (unknown origin) expressed in HEK cells at 10 uM; type: cell-based
[11] = target: T4, Mu-type opioid receptor; experiment: Displacement of [3H]-DAMGO from human mu opioid receptor expressed in CHO-K1 cells by radioligand binding assay; type: cell-based
[12] = target: T3, Kappa-type opioid receptor; experiment: Displacement of [3H]-U69593 from human kappa opioid receptor expressed in U2OS cells by radioligand binding assay; type: cell-based
[13] = target: Mu-type opioid receptor (Mus musculus, UniProt P42866); experiment: Agonist activity at mouse HA-tagged mu opioid receptor expressed in HEK293 cells assessed as inhibition of forskolin-induced cAMP production preincubated for 20 mins followed by forskolin stimulation and measured after 15 mins by Glo-sensor reagent based assay; type: functional, cell-based
[14] = target: Mu-type opioid receptor (Mus musculus) (UniProt P42866); experiment: Agonist activity at mouse HA-tagged mu opioid receptor expressed in HEK293 cells assessed as inhibition of forskolin-induced cAMP production preincubated for 20 mins followed by forskolin stimulation and measured after 15 mins by Glo-sensor reagent based assay relative to DAMGO; type: functional, cell-based; design: scale not given: the % may be the effect or the level left; conditions: filed as agonist
[15] = target: Kappa-type opioid receptor (Mus musculus) (UniProt P33534); experiment: Agonist activity at mouse FLAG-tagged kappa opioid receptor expressed in HEK293 cells assessed as inhibition of forskolin-induced cAMP production preincubated for 20 mins followed by forskolin stimulation and measured after 15 mins by Glo-sensor reagent based assay relative to U50488; type: functional, cell-based; design: scale not given: the % may be the effect or the level left; conditions: filed as agonist
[16] = target: Delta-type opioid receptor (Mus musculus) (UniProt P32300); experiment: Agonist activity at mouse FLAG-tagged delta opioid receptor expressed in HEK293 cells assessed as inhibition of forskolin-induced cAMP production preincubated for 20 mins followed by forskolin stimulation and measured after 15 mins by Glo-sensor reagent based assay relative to Leu-Enk; type: functional, cell-based; design: scale not given: the % may be the effect or the level left; conditions: filed as agonist
[17] = target: T3, Kappa-type opioid receptor; experiment: Agonist activity at human kappa opioid receptor expressed in U2OS cells assessed as beta-arrestin2 recruitment incubated for 90 mins by PathHunter assay relative to U50488; type: functional, cell-based
[18] = test system: Mus musculus; experiment: Antinociceptive activity against C57Bl/6N mouse model of thermal-induced nociception at 3 mg/kg, sc measured at 110 mins by hot-plate test; type: functional, organism-based
[19] = test system: Mus musculus; experiment: Antinociceptive activity against C57Bl/6N mouse model of thermal-induced nociception at 10 mg/kg, sc measured at 50 mins by tail-flick test; type: functional, organism-based
[20] = test system: Mus musculus; experiment: Antinociceptive activity against C57Bl/6N mouse model of thermal-induced nociception at 30 mg/kg, sc measured at 30 mins by tail-flick test; type: functional, organism-based
[21] = test system: Mus musculus; experiment: Antinociceptive activity against C57Bl/6N mouse model of thermal-induced nociception at 6 mg/kg, sc measured at 30 mins by tail-flick test; type: functional, organism-based
[22] = test system: Mus musculus; experiment: Antinociceptive activity against C57Bl/6N mouse model of thermal-induced nociception at 6 mg/kg, sc measured at 30 mins by hot-plate test; type: functional, organism-based
[23] = target: T3, Kappa-type opioid receptor; experiment: Agonist activity at human kappa opioid receptor expressed in U2OS cells assessed as beta-arrestin2 recruitment incubated for 90 mins by PathHunter assay; type: functional, cell-based

T3 sequence (P41145 whole entry): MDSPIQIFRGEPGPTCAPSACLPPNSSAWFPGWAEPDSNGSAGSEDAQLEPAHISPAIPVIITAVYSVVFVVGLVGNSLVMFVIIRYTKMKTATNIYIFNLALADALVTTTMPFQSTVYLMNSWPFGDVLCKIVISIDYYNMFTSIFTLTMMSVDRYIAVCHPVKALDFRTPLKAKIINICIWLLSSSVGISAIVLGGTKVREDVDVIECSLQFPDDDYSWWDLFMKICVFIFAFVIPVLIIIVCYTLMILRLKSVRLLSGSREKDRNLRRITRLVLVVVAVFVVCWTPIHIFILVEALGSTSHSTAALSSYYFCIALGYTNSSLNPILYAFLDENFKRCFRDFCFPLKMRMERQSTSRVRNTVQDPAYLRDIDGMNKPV
Sequence of Histamine H3 receptor (Homo sapiens) (Q9Y5N1 whole entry): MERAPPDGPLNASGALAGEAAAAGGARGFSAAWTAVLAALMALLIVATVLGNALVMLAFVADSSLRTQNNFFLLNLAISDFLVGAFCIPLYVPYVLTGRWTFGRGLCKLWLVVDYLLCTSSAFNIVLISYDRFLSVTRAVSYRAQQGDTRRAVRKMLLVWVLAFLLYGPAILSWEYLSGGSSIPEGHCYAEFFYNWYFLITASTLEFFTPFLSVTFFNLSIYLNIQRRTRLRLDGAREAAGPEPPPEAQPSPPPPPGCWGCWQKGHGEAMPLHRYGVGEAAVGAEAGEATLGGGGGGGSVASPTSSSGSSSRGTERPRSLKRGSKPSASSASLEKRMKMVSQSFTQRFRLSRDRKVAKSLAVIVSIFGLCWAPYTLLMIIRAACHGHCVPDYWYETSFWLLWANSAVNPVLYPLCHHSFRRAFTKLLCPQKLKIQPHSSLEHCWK
T4 sequence (P35372 whole entry): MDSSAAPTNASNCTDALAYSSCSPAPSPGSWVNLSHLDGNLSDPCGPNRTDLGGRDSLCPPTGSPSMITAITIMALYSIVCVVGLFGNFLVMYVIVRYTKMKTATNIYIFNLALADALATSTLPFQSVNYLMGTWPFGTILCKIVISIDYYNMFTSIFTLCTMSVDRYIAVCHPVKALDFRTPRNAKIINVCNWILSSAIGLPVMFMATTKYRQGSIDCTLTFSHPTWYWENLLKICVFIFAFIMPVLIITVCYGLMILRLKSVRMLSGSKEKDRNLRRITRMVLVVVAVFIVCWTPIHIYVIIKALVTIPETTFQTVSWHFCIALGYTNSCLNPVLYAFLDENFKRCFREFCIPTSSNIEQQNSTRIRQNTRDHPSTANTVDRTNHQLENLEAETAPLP
T2 sequence (P41143 whole entry): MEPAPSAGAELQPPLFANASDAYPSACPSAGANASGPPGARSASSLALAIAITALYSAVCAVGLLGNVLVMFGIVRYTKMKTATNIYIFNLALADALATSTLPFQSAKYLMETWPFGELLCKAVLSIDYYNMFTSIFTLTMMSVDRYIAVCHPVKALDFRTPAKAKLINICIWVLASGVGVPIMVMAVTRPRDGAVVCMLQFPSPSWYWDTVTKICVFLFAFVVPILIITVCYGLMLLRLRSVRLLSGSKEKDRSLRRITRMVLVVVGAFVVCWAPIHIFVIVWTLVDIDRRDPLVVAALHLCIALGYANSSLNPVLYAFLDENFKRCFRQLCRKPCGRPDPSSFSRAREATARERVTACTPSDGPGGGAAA
Sequence of Sodium-dependent serotonin transporter (Homo sapiens) (P31645 whole entry, looked up): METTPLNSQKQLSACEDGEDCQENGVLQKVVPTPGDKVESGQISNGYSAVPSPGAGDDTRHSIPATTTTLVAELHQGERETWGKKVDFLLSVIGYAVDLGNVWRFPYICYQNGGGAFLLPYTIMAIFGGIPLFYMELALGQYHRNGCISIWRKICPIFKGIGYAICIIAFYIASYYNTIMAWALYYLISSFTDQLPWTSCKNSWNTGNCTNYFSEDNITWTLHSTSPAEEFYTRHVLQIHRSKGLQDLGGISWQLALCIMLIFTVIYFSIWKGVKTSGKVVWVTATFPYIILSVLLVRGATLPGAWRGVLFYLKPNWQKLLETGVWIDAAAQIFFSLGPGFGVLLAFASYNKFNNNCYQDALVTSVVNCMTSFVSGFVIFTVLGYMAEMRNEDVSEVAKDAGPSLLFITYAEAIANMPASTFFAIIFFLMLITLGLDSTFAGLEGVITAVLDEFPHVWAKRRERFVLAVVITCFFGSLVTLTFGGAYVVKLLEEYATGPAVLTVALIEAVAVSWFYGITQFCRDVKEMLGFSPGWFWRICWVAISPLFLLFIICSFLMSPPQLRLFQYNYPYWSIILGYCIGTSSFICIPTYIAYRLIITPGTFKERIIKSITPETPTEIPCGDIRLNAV
T1 sequence (P21918 whole entry): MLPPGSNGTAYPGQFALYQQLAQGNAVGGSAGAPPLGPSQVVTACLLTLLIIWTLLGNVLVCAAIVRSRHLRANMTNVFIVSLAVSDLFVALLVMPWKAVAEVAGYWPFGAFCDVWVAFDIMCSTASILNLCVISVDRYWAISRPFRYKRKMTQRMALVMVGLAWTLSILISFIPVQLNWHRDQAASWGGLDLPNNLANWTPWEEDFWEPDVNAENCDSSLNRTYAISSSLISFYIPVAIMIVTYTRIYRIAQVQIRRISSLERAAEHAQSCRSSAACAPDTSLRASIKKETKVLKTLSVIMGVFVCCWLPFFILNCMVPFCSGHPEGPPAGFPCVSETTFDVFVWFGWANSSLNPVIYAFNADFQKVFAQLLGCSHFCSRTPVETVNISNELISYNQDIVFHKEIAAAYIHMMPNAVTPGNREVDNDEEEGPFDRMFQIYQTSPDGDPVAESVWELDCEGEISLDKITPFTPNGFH
Sequence of Delta-type opioid receptor (Mus musculus) (P32300 whole entry): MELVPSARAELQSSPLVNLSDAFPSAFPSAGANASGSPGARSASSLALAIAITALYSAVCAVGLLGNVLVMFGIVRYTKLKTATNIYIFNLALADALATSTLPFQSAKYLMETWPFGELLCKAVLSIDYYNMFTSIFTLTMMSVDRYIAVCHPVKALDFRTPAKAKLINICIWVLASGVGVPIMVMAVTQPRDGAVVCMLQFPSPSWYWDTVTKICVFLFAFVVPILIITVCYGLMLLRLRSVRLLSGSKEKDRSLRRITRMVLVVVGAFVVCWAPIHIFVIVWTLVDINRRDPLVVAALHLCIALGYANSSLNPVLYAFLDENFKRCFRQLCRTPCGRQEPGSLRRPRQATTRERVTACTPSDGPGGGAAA
Sequence of Delta-type opioid receptor (Mus musculus, UniProt P32300) (P32300 whole entry): as above
Sequence of Kappa-type opioid receptor (Mus musculus) (P33534 whole entry): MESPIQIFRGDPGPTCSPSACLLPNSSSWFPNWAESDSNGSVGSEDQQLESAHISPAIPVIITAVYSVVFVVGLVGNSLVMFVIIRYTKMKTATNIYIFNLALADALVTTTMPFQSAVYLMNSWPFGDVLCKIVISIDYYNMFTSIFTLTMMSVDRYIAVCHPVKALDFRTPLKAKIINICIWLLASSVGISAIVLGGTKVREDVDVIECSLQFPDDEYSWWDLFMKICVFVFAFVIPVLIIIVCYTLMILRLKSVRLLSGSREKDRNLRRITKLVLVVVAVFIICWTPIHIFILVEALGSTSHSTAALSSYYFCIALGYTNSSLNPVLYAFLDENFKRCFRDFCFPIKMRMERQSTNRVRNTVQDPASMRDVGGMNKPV
Sequence of Kappa-type opioid receptor (Mus musculus, UniProt P33534) (P33534 whole entry): as above
Sequence of Mu-type opioid receptor (Mus musculus) (P42866 whole entry): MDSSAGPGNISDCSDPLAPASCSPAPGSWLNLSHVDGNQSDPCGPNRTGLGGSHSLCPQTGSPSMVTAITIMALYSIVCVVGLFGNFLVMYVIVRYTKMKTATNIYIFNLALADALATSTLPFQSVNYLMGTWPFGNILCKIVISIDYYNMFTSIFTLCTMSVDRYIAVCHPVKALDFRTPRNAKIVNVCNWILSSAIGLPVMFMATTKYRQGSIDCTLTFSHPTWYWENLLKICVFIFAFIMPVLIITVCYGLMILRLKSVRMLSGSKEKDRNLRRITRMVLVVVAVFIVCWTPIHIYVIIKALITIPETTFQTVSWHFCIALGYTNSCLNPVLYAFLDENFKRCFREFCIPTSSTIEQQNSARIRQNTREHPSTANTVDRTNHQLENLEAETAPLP
Sequence of Mu-type opioid receptor (Mus musculus, UniProt P42866) (P42866 whole entry): as above

Compound | inhibition [1] | inhibition [2] [%] | inhibition [3] [%] | Ki [4] [µM] | Ki [5] [µM] | IC50 [6] [µM] | IC50 ([7]; read-out: IC50) [µM] | inhibition [8] | inhibition [9] | Ki [11] [µM] | Ki [12] [µM] | IC50 [13] [µM] | Activity [14] [%] | Activity [15] [%] | Activity [16] [%] | further results
C/C=C1/CN2CC[C@@]34c5cc(O)ccc5N(C)[C@]35OC[C@@]4(C(=O)OC)[C@H]1C[C@H]25 | Active | < 60 | < 60 | > 10 | 10.4 | 0.073 | 20.3 |  |  |  |  |  |  |  |  | 
C/C=C1/CN2CC[C@]34C(=Nc5ccccc53)[C@@H]2C[C@@H]1[C@@]4(COC(C)=O)C(=O)OC | Active | < 60 | < 60 | > 10 | 60.3 | 2.71 | 24.4 | Active | Active | 30.7 | 1.11 | 18.7 | 50 | 92 | 90 | inhibition [10]: inactive; Activity [17]: 30%
C/C=C1/CN2[C@H]3Cc4c([nH]c5ccccc45)[C@@H]2C[C@@H]1[C@]3(CO)C(=O)OC |  |  |  |  | 15 |  | 15.4 |  |  | 0.32 | 14.2 | 3.14 | 94 |  | 90 | Activity [18]: inactive; Activity [19]: Active; Activity [20]: Active
CN1CC[C@]23c4c5ccc(O)c4O[C@H]2[C@@H](O)C=C[C@H]3[C@H]1C5 |  |  |  |  |  |  |  |  |  |  |  |  |  |  |  | Activity [21]: Active; Activity [22]: Active
C/C=C1/CN2CC[C@]34C(=C(C(=O)OC)[C@H]1C[C@H]23)Nc1ccccc14 [AKUAMMICINE] | Active | < 60 | < 60 | > 10 | 23.2 | 0.24 | 12.4 | Active | Active | 3.31 | 0.089 | 8.24 | 45 | 84 | 60 | inhibition ([10]; filed as agonist): Active; IC50 ([7]; read-out: pIC50 (converted)): 12.6 µM; EC50 [23]: 39.8 µM; Activity ([17]; filed as agonist): 50%
C/C=C1/CN2[C@@H]3C[C@@]45c6ccccc6N[C@]4(O3)[C@@H]2C[C@@H]1[C@@]5(COC(C)=O)C(=O)OC | Active | < 60 | < 60 | > 10 | 98.8 | 1.97 |  | Active | Active | 132 | 2.38 | 45 |  | 92 |  | inhibition [10]: inactive
C/C=C1/CN2CC[C@@]34c5ccccc5N(C)[C@]35OC[C@@]4(C(=O)OC)[C@H]1C[C@H]25 | Active | < 60 | < 60 | > 10 | 8.37 | 6.46 | 95.6 |  |  |  |  |  |  |  |  | 
